# Measurements as given in paper PMC10349806 (Nature Communications, 2023).
# “And” between values parts separate entries of the source, which are not always exact repeats. Equal entries are not always repeated.
# How the values were obtained:
# [1] = target: T1, PfCRT variant E75A (Plasmodium falciparum, UniProt Q9N623, A220S/I356T/K76T/M74I/N326S/N75A/Q271E/R371I); experiment: CQ uptake assay, oocytes expressing E75A; assay type: cell-based
# T1 sequence (Q9N623 1-424 M74I/N75A/K76T/A220S/Q271E/N326S/I356T/R371I): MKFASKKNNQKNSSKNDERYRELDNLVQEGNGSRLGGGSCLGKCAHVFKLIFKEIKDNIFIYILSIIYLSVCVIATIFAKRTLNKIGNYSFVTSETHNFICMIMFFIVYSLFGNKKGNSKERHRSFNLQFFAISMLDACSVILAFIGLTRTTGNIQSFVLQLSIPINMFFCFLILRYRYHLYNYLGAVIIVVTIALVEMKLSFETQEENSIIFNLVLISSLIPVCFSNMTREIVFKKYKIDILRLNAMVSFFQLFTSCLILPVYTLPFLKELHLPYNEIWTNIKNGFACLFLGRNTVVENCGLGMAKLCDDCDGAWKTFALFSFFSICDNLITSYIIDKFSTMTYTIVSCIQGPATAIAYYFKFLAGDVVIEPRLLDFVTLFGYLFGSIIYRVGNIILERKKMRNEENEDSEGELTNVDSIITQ
# Protocol: (§1) Site-directed mutagenesis of PfCRT^Dd2 was performed as described using the megaprimer method with overlap extension[21],[54]. The primer pairs used are listed in Supplementary Table 6. Please note that a codon-optimized and oocyte-adapted version of PfCRT^Dd2 was used[22] (Supplementary Fig. 16). The resulting DNA fragment was cloned into the SP64T expression vector and verified by sequencing.
# (§2) Oocytes were obtained as described previously. Briefly, adult (>2 years old) female X. laevis frogs (NASCO) were anesthetized in a cooled solution of ethyl 3-amino benzoate methanesulfonate (0.1%, w/v), followed by a surgical removal of parts of the ovary. The ovary lobes were carefully dissected and small pieces of oocytes were incubated in Ca^2+-free ND96 buffer (96 mM NaCl, 2 mM KCl, 1 mM MgCl2 buffered with 5 mM HEPES/NaOH, pH 7.5) supplemented with collagenase D (0.1%, w/v; Roche), BSA (0.5%, w/v), and 9 mm Na2HPO4 at 18 °C for 14-16 h while gentle shaking. After incubation, the oocytes were carefully washed several times with ND96 buffer (96 mM NaCl, 2 mM KCl, 1.8 mM CaCl2, 1 mM MgCl2 buffered with 5 mM HEPES/NaOH, pH 7.5) supplemented with 100 mg l^−1 gentamycin). Defolliculated and healthy-looking stage V-VI oocytes were manually selected for RNA microinjection. The RNA was generated as following: The codon-optimized sequences of PfCRT variants were cloned into the pSP64T expression vector. After vector linearization using the restriction endonucleases BamHI or SalI (New England Biolabs), transcription was performed using the in vitro SP6 mMessage mMachine Kit (Ambion)[34]. The obtained RNA was kept at −80 °C and diluted with nuclease-free water to a concentration of 0.6 μg μl^−1. Precision-bore glass capillary tubes (3.5-inch glass capillaries; Drummond Scientific Co.) were pulled on a vertical puller (P-87 Flaming/Brown micropipette puller, Sutter Instrument Co.), graduated, and placed on a microinjector (Nanoject II Auto-Nanoliter Injector, Drummond Scientific Co.). 50 nl of nuclease-free water alone (control oocytes) or 50 nl of 0.6 μg μl^−1 RNA were injected under stereomicroscopic control. Injected oocytes were incubated for 46–72 h at 18 °C with twice-daily buffer changes before usage in experiments.
# Drug uptake assays were performed as described previously[21],[22],[24],[34]. […] The direction of radio-labeled drug transport is here from the mostly acidic extracellular solution (pH 4.5 or 6.0, as indicated) into the oocyte cytosol (pH ∼ 7.2), which corresponds to the efflux of drug from the acidic digestive vacuole (pH 5.2) into the parasite cytoplasm (pH 7.2). The topology of PfCRT in the oolemma is such that both the N- and C-terminus face the extracellular milieu[3],[22]. In the parasite, the N- and C-terminus face the lumen of the digestive vacuole. […] For determination of the amount of drug uptake for each oocyte, the reaction medium was removed and the oocytes were washed three times with 2 ml of ice-cold ND96 buffer. Each oocyte was individually transferred to a scintillation vial containing 5% sodium dodecyl sulfate (200 μl) for lysis. […] Oocytes that were injected with water instead of RNA were analyzed in parallel, representing the uptake of a drug by diffusion and/or endogenous permeation pathways. […] The specific PfCRT-mediated uptake was determined by subtracting the corresponding background value measured in water-injected oocytes from that of PfCRT-expressing oocytes. […]
# [2] = test system: PfCRT variant E207P; experiment: CQ uptake assay, oocytes expressing E207P; assay type: cell-based, Plasmodium falciparum
# Protocol: as §1, §2
# Drug uptake assays were performed as described previously[21],[22],[24],[34]. […] The direction of radio-labeled drug transport is here from the mostly acidic extracellular solution (pH 4.5 or 6.0, as indicated) into the oocyte cytosol (pH ∼ 7.2), which corresponds to the efflux of drug from the acidic digestive vacuole (pH 5.2) into the parasite cytoplasm (pH 7.2). The topology of PfCRT in the oolemma is such that both the N- and C-terminus face the extracellular milieu[3],[22]. In the parasite, the N- and C-terminus face the lumen of the digestive vacuole. CQ uptake kinetics were performed by incubating oocytes in ND96 buffer adjusted to a pH of 4.5, 5.0, 5.5, or 6.0 and supplemented with 50 nM [^3H]CQ and one of 7 different CQ concentrations (10 µM, 50 µM, 100 µM, 200 µM, 300 µM, 400 µM, 500 µM CQ). The reaction was stopped at the 60 min time point, which is in the linear uptake range[22],[34] (Supplementary Fig. 17). For determination of the amount of drug uptake for each oocyte, the reaction medium was removed and the oocytes were washed three times with 2 ml of ice-cold ND96 buffer. Each oocyte was individually transferred to a scintillation vial containing 5% sodium dodecyl sulfate (200 μl) for lysis. The radioactivity of each sample was measured using a liquid scintillation analyzer Tri-Carb 4910 TR (PerkinElmer). Oocytes that were injected with water instead of RNA were analyzed in parallel, representing the uptake of a drug by diffusion and/or endogenous permeation pathways. The resulting value represents the “background“ level of drug accumulation in oocytes (in-depth discussion in[22]). […]
# [3] = E207P, 50 µM CQ, 1 h, mean ± SEM
compound,measurement,setting,value
"CCN(CC)CCCC(C)Nc1ccnc2cc(Cl)ccc12 (centres unmarked) [CQ, chloroquine]",Activity at pH 4.5,"[1]; E75A, 50 µM CQ, 1 h, mean ± SEM",0.89 ± 0.11 pmol h-1 oocyte-1
same,R-value,"[1]; E75A, CQ transport at pH 4.5 / pH 6.0",0.51 ± 0.05
same,E75A transport activity pH 4.5,"[1]; pH 4.5, single replicates, Fig 1d left",0.71 pmol oocyte-1 h-1 and 1.15 pmol oocyte-1 h-1 and 0.80 pmol oocyte-1 h-1
same,E75A R-value,"[1]; pH 4.5 vs pH 6.0, Fig 1d left",0.40 and 0.62 and 0.50
same,E75A transport activity pH 6.0,"[1]; pH 6.0, single replicates, Fig 1d left",1.76 pmol oocyte-1 h-1 and 1.84 pmol oocyte-1 h-1 and 1.60 pmol oocyte-1 h-1
same,Activity at pH 4.5,[2]; [3],2.31 ± 0.3 pmol h-1 oocyte-1
same,Activity at pH 6.0,[2]; [3],2.45 ± 0.21 pmol h-1 oocyte-1
same,R-value,"[2]; E207P, CQ transport at pH 4.5 / pH 6.0",0.93 ± 0.05
same,E207P transport activity pH 4.5,"[2]; pH 4.5, individual replicates, Fig 6b",2.94 pmol oocyte-1 h-1 and 1.66 pmol oocyte-1 h-1 and 2.34 pmol oocyte-1 h-1
same,E207P transport activity pH 6.0,"[2]; pH 6.0, individual replicates, Fig 6b",2.94 pmol oocyte-1 h-1 and 2.08 pmol oocyte-1 h-1 and 2.34 pmol oocyte-1 h-1
same,E207PR-value,[2]; ratio of activity pH 4.5 / pH 6.0,1.00 and 0.80
